Our source for the melting point values is patent US6423725B1 (dated 2002).

Structures can show the parent of a compound that is named as a salt.

What is called melting point is the temperature of the solid-liquid transition. In turn, `O=c1[nH]c2ccccc2n1C1CCN(C2(c3ccccc3)CCCCCCCC2)CC1` (as salt: hydrochloride) returned a melting point of 187 °C.

Take `COc1ccc(C2(N3CCC(n4c(=O)[nH]c5ccccc54)CC3)CCCCC2)cc1` (as salt: hydrochloride): the melting point lay in the range of 193 to 197 °C.

In turn, `O=c1[nH]c2ccccc2n1C1CCN(C2(c3ccccc3)CCCCCCCCC2)CC1` (as salt: hydrochloride) showed a melting point of 217 °C.

Compound `COc1ccccc1C1(N2CCC(n3c(=O)[nH]c4ccccc43)CC2)CCCCCC1` (as salt: hydrochloride) displayed a melting point of 167 to 173 °C.

Compound `CC1(C)CCC(c2ccccc2)(N2CCC(n3c(=O)[nH]c4ccccc43)CC2)CC1` (as salt: hydrochloride) came in with a melting point of 256 °C.

As for `CNCCn1c(=O)n(C2CCN(C3(c4ccccc4)CCCCCC3)CC2)c2ccccc21` (as salt: hydrochloride), the melting point is 217 °C.

`O=c1[nH]c2ccccc2n1C1CCN(C2(c3ccccc3)CCCCCCCCCC2)CC1` (as salt: hydrochloride) displayed a melting point of 196 to 202 °C.

In turn, `CC(C)(C)C1CCC(c2ccccc2)(N2CCC(n3c(=O)[nH]c4ccccc43)CC2)CC1` (stereo not drawn) (as salt: hydrochloride) returned a melting point of 218 to 219 °C.

In turn, `COc1cccc(C2(N3CCC(n4c(=O)[nH]c5ccccc54)CC3)CCCCCC2)c1` (as salt: hydrochloride) yielded a melting point of 216 to 218 °C.

In turn, `CCCC1(N2CCC(n3c(=O)[nH]c4ccccc43)CC2)CCC2(CCCCC2)CC1` (as salt: hydrochloride) yielded a melting point of 240 to 247 °C.

`O=c1[nH]c2ccccc2n1C1CCN(C2(c3ccc(F)cc3)CCCCCC2)CC1` (as salt: hydrochloride) registered a melting point of 185 to 192 °C.

Compound `O=C(c1ccccc1)c1ccc2c(c1)[nH]c(=O)n2C1CCN(C2(c3ccccc3)CCCCCC2)CC1` (as salt: hydrochloride) displayed a melting point of 118 to 122 °C.

Turning to `O=c1[nH]c2ccccc2n1C1CCN(C2(c3ccccc3)CCCCCCCCCCC2)CC1` (as salt: hydrochloride), the melting point stood at 251 °C.

The compound `O=c1[nH]c2ccccc2n1C1CCN(C2(c3ccccc3)CCCCCCC2)CC1` (as salt: hydrochloride) showed a melting point of 196 °C.

In turn, `O=c1[nH]c2ccccc2n1C1CCN(C2(c3cccc(F)c3)CCCCCC2)CC1` (as salt: hydrochloride) came in with a melting point of 196 to 199 °C.
